In patent US20180188270A1, “DIAGNOSTIC TEST FOR ALZHEIMER'S DISEASE BASED ON IDENTIFICATION OF A PROTEOLYTIC PATHWAY” (Health Research, Inc., priority 2015, published 2018):
Entries after “also recorded” stand apart in the source; their conditions may differ.

How the values were obtained:
plasma hAβ1-42 = assay: Effects of oral anticoagulants on plasma level of hAβ1-42 in mice; format: in vivo; details: for elevation of plasma levels of hAβ1-42: hAβ1-42 40 μg/kg, 6 h; for top dose tested is the maximal soluble dose: mouse, in vivo
Method: Blood was collected into K3 EDTA-containing tubes (Multivette 600 from Sarstedt). […] Rivaroxaban, dabigatran (dabigatran elexilate) and warfarin (warfarin sodium tablets) were from Bristol-Myers-Squibb, Combi-Blocks, and Advanced Chemblocks, respectively. Rivaroxaban was dissolved in 10% ethanol, 40% Solutol HS15 (Sigma) and 50% water and was administered to mice in 0.2 ml volume per 20 g body weight. Dabigatran was dissolved in 2% dimethyl sulfoxide in soy oil (Sigma) and was also administered to mice in 0.2 ml volume per 20 g body weight. Warfarin was dissolved in water and was administered to mice in 0.1 ml volume per 20 g body weight.

plasma PEPD = assay: Plasma PEPD concentration in mice by ELISA; format: in vivo, mouse; details: CCl4 0.5 g/kg i.p., 24 h
Method: (§1) Animal studies. All animal studies were performed in accordance with protocols approved by the Institutional Animal Care and Use Committee at Roswell Park Cancer Institute. Male mice at 7-8 weeks of age were used, including wild type (WT) mice (C57BL/6), and mice deficient in FXII (C57BL/6-FXII^−/−) or FVII (C57BL/6-FVII^tTA/tTA). WT C57BL/6 mice were purchased from Taconic. C57BL/6-FXII^−/− mice and C57BL/6-FVII^tTA/tTA mice were bred in our own facility and genotyped. The breeders were kindly provided by Dr. Francis J. Castellino at University of Notre Dame. […] CCl4 was dissolved in corn oil, whereas all other substances were dissolved in PBS. The vehicle or the test substance was given to mice in 0.1 ml volume per 20 g body weight. Blood was collected from the mice at specific times by cardiac puncture at the time of sacrifice by carbon dioxide, and heart, liver and kidney were also collected from some of the mice. Blood was collected into K3 EDTA-containing tubes (Multivette 600 from Sarstedt), unless specified otherwise. All blood samples were promptly centrifuged to obtain plasma samples.
Measurement of plasma levels of PEPD, SRC, Aβ1-42 and FI. […] The plates were washed three times with phosphate buffered saline tween-20 (PBST) and the coated wells were blocked by incubation with 200 μl/well of 1% BSA in PBS for at least 2 h at RT. After another round of wash with PBST, the plates were incubated with appropriately diluted Aβ1-42 standard, SRC standard or plasma samples (100 μl/well) for 2 h at RT. The plates were then washed with PBST and incubated with an anti-Aβ1-42 rabbit polyclonal antibody (sc-9129) or anti-SRC rabbit monoclonal antibody (2123) at 100 μl/well for 2 h at RT. The plates were washed again with PBST, and each well was incubated with a goat anti-rabbit IgG-HRP conjugate (100 μl) for 1 h at RT. After yet another round of wash with PBST, each well was incubated with 100 μl of HRP substrate 3,3′,5,5′-tetramethylbenzedine (Cell Signaling, 7004). Upon adequate color development, 100 μl of stop solution (Cell Signaling, 7002) was added to each well, and absorbance at 450 nm was promptly recorded by a microtiter plate reader. Plasma FI concentration was determined using an assay kit (400-374-130050) from GenWay Biotech, following the manufacturer's instruction.

plasma mSRC = assay: Plasma SRC concentration in mice by ELISA; format: in vivo, mouse; details: FXII−/− mice, CCl4 0.5 g/kg or hPEPD 4 mg/kg i.p., 24 h
Method: as §1, with “Blood was collected into K3 EDTA-containing tubes (Multivette 600 from Sarstedt), unless specified otherwise. All blood samples were promptly centrifuged to obtain plasma samples.” left out
Measurement of plasma levels of PEPD, SRC, Aβ1-42 and FI. […] Upon adequate color development, 100 μl of stop solution (Cell Signaling, 7002) was added to each well, and absorbance at 450 nm was promptly recorded by a microtiter plate reader. Plasma FI concentration was determined using an assay kit (400-374-130050) from GenWay Biotech, following the manufacturer's instruction.

plasma Aβ1-42 = assay: Plasma Aβ1-42 concentration in mice by ELISA; format: in vivo, mouse; details: FXII−/− mice, CCl4 0.5 g/kg or hPEPD 4 mg/kg i.p., 24 h
Method: Animal studies. All animal studies were performed in accordance with protocols approved by the Institutional Animal Care and Use Committee at Roswell Park Cancer Institute. Male mice at 7-8 weeks of age were used, including wild type (WT) mice (C57BL/6), and mice deficient in FXII (C57BL/6-FXII^−/−) or FVII (C57BL/6-FVII^tTA/tTA). WT C57BL/6 mice were purchased from Taconic. C57BL/6-FXII^−/− mice and C57BL/6-FVII^tTA/tTA mice were bred in our own facility and genotyped. […] CCl4 was dissolved in corn oil, whereas all other substances were dissolved in PBS. The vehicle or the test substance was given to mice in 0.1 ml volume per 20 g body weight. Blood was collected from the mice at specific times by cardiac puncture at the time of sacrifice by carbon dioxide, and heart, liver and kidney were also collected from some of the mice. Blood was collected into K3 EDTA-containing tubes (Multivette 600 from Sarstedt), unless specified otherwise. All blood samples were promptly centrifuged to obtain plasma samples.

liver = assay: Liver damage after CCl4: plasma AST and ALT, liver weight; format: in vivo, mouse; details: WT mice and FXII−/− mice, CCl4 0.5 g/kg i.p., 24 h
Method: as §1
Measurement of Plasma Levels of Aspartate Transaminase (AST) and Alanine Transaminase (ALT). Plasma AST activity was measured using the Infinity™ AST (GOT) Reagent kit (Thermo, TR70121). Plasma ALT activity was measured using the Infinity™ ALT (GPT) Reagent kit (Thermo, TR71121). […]

ERBB1 and ERBB2 = assay: Tissue levels and phosphorylation of ERBB1 and ERBB2 by IB; format: in vivo, mouse; details: CCl4 0.5 g/kg or hPEPD 4 mg/kg i.p., 24 h
Method: as §1
IB. […] Protein concentrations in all samples were measured by the BCA assay kit. […] The proteins were transferred to polyvinylidene fluoride membrane, probed with specific antibodies and detected using the ECL Plus Kit (Amersham) or the SuperSignal West Pico Kit (Thermo Scientific).

[1] = system: plasma coagulation factors FXII, PK, HMWK, FXI, FIX, FX, FII, FI and FVII; assay: Changes in plasma coagulation factors in mice by IB (FI by ELISA); format: in vivo, mouse; details: WT mice, 6 h after i.p. treatment
Method: Animal studies. […] Male mice at 7-8 weeks of age were used, including wild type (WT) mice (C57BL/6), and mice deficient in FXII (C57BL/6-FXII^−/−) or FVII (C57BL/6-FVII^tTA/tTA). WT C57BL/6 mice were purchased from Taconic. C57BL/6-FXII^−/− mice and C57BL/6-FVII^tTA/tTA mice were bred in our own facility and genotyped. […] CCl4 was dissolved in corn oil, whereas all other substances were dissolved in PBS. The vehicle or the test substance was given to mice in 0.1 ml volume per 20 g body weight. Blood was collected from the mice at specific times by cardiac puncture at the time of sacrifice by carbon dioxide, and heart, liver and kidney were also collected from some of the mice. Blood was collected into K3 EDTA-containing tubes (Multivette 600 from Sarstedt), unless specified otherwise. All blood samples were promptly centrifuged to obtain plasma samples.
The plates were washed three times with phosphate buffered saline tween-20 (PBST) and the coated wells were blocked by incubation with 200 μl/well of 1% BSA in PBS for at least 2 h at RT. […] The plates were washed again with PBST, and each well was incubated with a goat anti-rabbit IgG-HRP conjugate (100 μl) for 1 h at RT. After yet another round of wash with PBST, each well was incubated with 100 μl of HRP substrate 3,3′,5,5′-tetramethylbenzedine (Cell Signaling, 7004). Upon adequate color development, 100 μl of stop solution (Cell Signaling, 7002) was added to each well, and absorbance at 450 nm was promptly recorded by a microtiter plate reader. Plasma FI concentration was determined using an assay kit (400-374-130050) from GenWay Biotech, following the manufacturer's instruction.
IB. Tissue samples were mixed with RIPA buffer (25 mM Tris-HCl, pH 7.6, 150 mM NaCl, 1% Nonidet P-40, 1% sodium deoxycholate, 0.1% SDS), supplemented with 2 mM phenylmethanesulfonyl fluoride, a proteinase inhibitor mix (Roche Applied Science) and phosphatase inhibitor Cocktail 2 (Sigma-Aldrich). Tissue samples were stroked in a Dounce homogenizer, and the homogenates were cleared by centrifugation at 12,000×g for 15 min at 4° C. Protein concentrations in all samples were measured by the BCA assay kit. Plasma samples were used without further processing (20 μl per sample). Each sample was mixed with 4× loading dye, heated for 5 min at 95° C. and then resolved by SDS-PAGE (8-12.5%). […] The proteins were transferred to polyvinylidene fluoride membrane, probed with specific antibodies and detected using the ECL Plus Kit (Amersham) or the SuperSignal West Pico Kit (Thermo Scientific).

FXII [2] = assay: FXII activation, chromogenic assay; format: biochemical, human; details: FXII 0.97 nM, ZnCl2-containing PBS, RT
Method: Measurement of FXII activation. […] FXII activation was followed for 3 h at RT by monitoring the conversion of the chromogenic substrate at 405 nm by a microtiter plate reader.
Each value is mean±SD (n=3).

FXII [3] = assay: Binding to coagulation factor FXII (IP and IB); design: species or system human; details: 40 nM (hAβ1-42 200 nM) with FXII in PBS, 2 h
Method: Binding reactions were carried out in PBS in a total volume of 100 μl for 2 h at 37° C. To assess binding of hPEPD to HMWK, PK, FXI, FXII or a FXII mutant, hPEPD at 40 nM was incubated with a potential binding partner at 0.5 μM. All FXII mutants are His tagged, while FXII is either 6XHis-tagged (generated in our own laboratory) or not His-tagged (purchased commercially), depending on the experiment. To compare hPEPD and its mutants for binding to FXII, hPEPD or a mutant (40 nM) was incubated with FXII at 0.5 μM. Likewise, to assess binding of mSRC to FXII and its mutants, mSRC (40 nM) was incubated with FXII or a mutant at 0.5 μM. At the end of the incubation, 300 μl PBS containing a specific primary antibody was added to the incubation solution, which was further incubated at 4° C. overnight, followed by IP by protein G-agarose, and the precipitates were analyzed by IB. […] The precipitates were re-dissolved in 30 μl of 2% SDS, which were analyzed along with the supernatants by IB.

[H]/N=C(/N)c1ccc(NCc2nc3cc(C(=O)N(CCC(=O)O)c4ccccn4)ccc3n2C)cc1 [dabigatran]
elevation of plasma levels of hAβ1-42 (plasma hAβ1-42; dabigatran 22.5 mg/kg oral once daily 5 days): 14.1 fold
elevation of plasma levels of hAβ1-42 (plasma hAβ1-42; dabigatran 45 mg/kg oral once daily 5 days): 21.3 fold
top dose tested is the maximal soluble dose (plasma hAβ1-42): maximal soluble doses

ClC(Cl)(Cl)Cl [CCl4, Carbon tetrachloride]
plasma level of mPEPD, increase (plasma PEPD; FXII−/− mice): 16.7 fold
plasma level of mPEPD, increase (plasma PEPD; WT mice): 3.7 fold
average plasma level of mSRC, increase (plasma mSRC): 6.7%
average plasma level of mAβ1-42, increase (plasma Aβ1-42): 24.9%
liver damage (plasma AST, ALT, liver weight) (liver): caused significant but similar liver damage
changes in ERBB1/ERBB2 tyrosine phosphorylation and receptor depletion in heart, kidney and liver, WT mice compared to FXII−/− mice (ERBB1 and ERBB2): reduced changes in receptor tyrosine phosphorylation

O=C(NC[C@H]1CN(c2ccc(N3CCOCC3=O)cc2)C(=O)O1)c1ccc(Cl)s1 [rivaroxaban]
relative effectiveness in elevating plasma hAβ1-42 level (plasma hAβ1-42; comparison among warfarin, rivaroxaban, dabigatran and with EP): the most effective; also recorded: not as effective as EP
top dose tested is the maximal soluble dose (plasma hAβ1-42): maximal soluble doses
elevation of plasma levels of hAβ1-42 (plasma hAβ1-42; rivaroxaban 10 mg/kg oral once daily 5 days): 47.2 fold
elevation of plasma levels of hAβ1-42 (plasma hAβ1-42; rivaroxaban 20 mg/kg oral once daily 5 days): 55.5 fold

CC(=O)CC(c1ccccc1)c1c(O)c2ccccc2oc1=O (centres unmarked) [warfarin]
elevation of plasma levels of hAβ1-42 (plasma hAβ1-42; warfarin 1 mg/kg oral once daily 5 days): 33.2 fold
elevation of plasma levels of hAβ1-42 (plasma hAβ1-42; warfarin 3 mg/kg oral once daily 5 days): 42.4 fold

B1: mPEPD: mouse PEPD purified from mouse kidney by immunoaffinity purification, without any tag (protein, UniProt Q11136 2-493, looked up)
Xaa-Pro dipeptidase: ASTVRPSFSLGNETLKVPLALFALNRQRLCERLRKNGAVQAASAVVLQGGEEMQRYCTDTSIIFRQESFFHWAFGVVESGCYGVIDVDTGKSTLFVPRLPDSYATWMGKIHSKEYFKEKYAVDDVQYTDEIASVLTSRNPSVLLTLRGVNTDSGSVCREASFEGISKFNVNNTILHPEIVECRVFKTDMELEVLRYTNRISSEAHREVMKAVKVGMKEYEMESLFQHYCYSRGGMRHTSYTCICCSGENAAVLHYGHAGAPNDRTIKDGDICLFDMGGEYYCFASDITCSFPANGKFTEDQKAIYEAVLRSCRTVMSTMKPGVWWPDMHRLADRIHLEELARIGLLSGSVDAMLQVHLGAVFMPHGLGHFLGLDVHDVGGYPEGVERIDEPGLRSLRTARHLEPGMVLTVEPGIYFIDHLLDQALADPAQACFFNQEVLQRFRNFGGVRIEEDVVVTDSGMELLTCVPRTVEEIEACMAGCDKASVPFSGQK
activation/cleavage of plasma coagulation factors [1]: elicited the same response as did hPEPD

B2: 1M-228Hdel-hPEPD: hPEPD mutant named only once; probably 1M-265Rdel-hPEPD (protein, UniProt P12955 229-493, looked up, fragment)
chain: YCYSRGGMRHSSYTCICGSGENSAVLHYGHAGAPNDRTIQNGDMCLFDMGGEYYCFASDITCSFPANGKFTADQKAVYEAVLRSSRAVMGAMKPGVWWPDMHRLADRIHLEELAHMGILSGSVDAMVQAHLGAVFMPHGLGHFLGIDVHDVGGYPEGVERIDEPGLRSLRTARHLQPGMVLTVEPGIYFIDHLLDEALADPARASFLNREVLQRFRGFGGVRIEEDVVVTDSGIELLTCVPRTVEEIEACMAGCDKAFTPFSGPK
FXII activation, activity relative to hPEPD (FXII [2]): about 50%

B3: 266T-493Kdel-hPEPD: hPEPD deletion mutant, cannot form homodimers (protein, UniProt P12955 1-265, looked up, fragment)
chain: MAAATGPSFWLGNETLKVPLALFALNRQRLCERLRKNPAVQAGSIVVLQGGEETQRYCTDTGVLFRQESFFHWAFGVTEPGCYGVIDVDTGKSTLFVPRLPASHATWMGKIHSKEHFKEKYAVDDVQYVDEIASVLTSQKPSVLLTLRGVNTDSGSVCREASFDGISKFEVNNTILHPEIVECRVFKTDMELEVLRYTNKISSEAHREVMKAVKVGMKEYELESLFEHYCYSRGGMRHSSYTCICGSGENSAVLHYGHAGAPNDR
binding to FXII (FXII [3]): neither 185V-493Kdel-hPEPD nor 266T-493Kdel-hPEPD could bind to FXII

B4: 185V-493Kdel-hPEPD: hPEPD deletion mutant, cannot form homodimers (protein, UniProt P12955 1-184, looked up, fragment)
chain: MAAATGPSFWLGNETLKVPLALFALNRQRLCERLRKNPAVQAGSIVVLQGGEETQRYCTDTGVLFRQESFFHWAFGVTEPGCYGVIDVDTGKSTLFVPRLPASHATWMGKIHSKEHFKEKYAVDDVQYVDEIASVLTSQKPSVLLTLRGVNTDSGSVCREASFDGISKFEVNNTILHPEIVECR
binding to FXII (FXII [3]): neither 185V-493Kdel-hPEPD nor 266T-493Kdel-hPEPD could bind to FXII

B5: 1M-265Rdel-hPEPD: hPEPD deletion mutant, cannot form homodimers (protein, UniProt P12955 266-493, looked up, fragment)
chain: TIQNGDMCLFDMGGEYYCFASDITCSFPANGKFTADQKAVYEAVLRSSRAVMGAMKPGVWWPDMHRLADRIHLEELAHMGILSGSVDAMVQAHLGAVFMPHGLGHFLGIDVHDVGGYPEGVERIDEPGLRSLRTARHLQPGMVLTVEPGIYFIDHLLDEALADPARASFLNREVLQRFRGFGGVRIEEDVVVTDSGIELLTCVPRTVEEIEACMAGCDKAFTPFSGPK
binding to FXII (FXII [3]): almost indistinguishable from hPEPD in FXII binding
